According to patent US20240101566A1, “TRICYCLIC UBIQUITIN SPECIFIC PROTEASE 1 INHIBITOR AND USE THEREOF” (SHANDONG XUANZHU PHARMA CO., LTD., priority 2021, published 2024):

How the values were obtained:
[1] = system: MDA-MB-436 cells; assay: First in-vitro cytological inhibitory activity experiment (CelltiterGlo assay); type: cell-based, human; details: Homo sapiens, MDA-MB-436, 168 h, Experimental Example 2, 4,000 cells/well, 7 days, read-out: In-vitro cytological activities, IC50, MDA-MB-436
Procedure: Experimental Example 2 First Experiment of in-vitro Cytological Inhibitory Activities of Compounds of the Present Disclosure
A cell line used in the following experiment was as follows: MDA-MB-436: human breast cancer cells.
Experimental method (CelltiterGlo assay)
All cells were adherent cells, the medium was DMEM+10% FBS+1% ITS-G+16 μg/ml glutathione, and the cells were tested in a logarithmic growth phase.
(§1) Cells in the logarithmic growth phase were collected and counted by a […]. The cell viability was detected by a trypan blue exclusion method, and the cell viability was kept over 90%. The cell concentration was adjusted to be in a proper range, and 90 μL of cell suspension was added into a 96-well plate respectively.
(§2) 2.1 DMSO stock solutions of the test compounds were prepared, and concentrations of the stock solutions of the test compounds were 10 mM respectively.
(§3) The stock solutions of the test compounds were serially diluted from 10 mM with DMSO in a 3-fold gradient for a total of 8 concentrations. Then, 2 µL of DMSO-gradient diluted compounds were respectively added into 198 µL of culture solutions to give the working stock solutions of the test compounds (a compound concentration was 10-fold higher than the final concentration, and a maximum concentration was 10 μM).
(§4) 10 μL of compound working stock solution was added into each well in the 96-well plate inoculated with cells (10-fold dilution, a final DMSO concentration was 0.1%).
Solvent control: 0.1% DMSO. […]
(§5) A CTG reagent was thawed and the 96-well plate was equilibrated to room temperature for 30 minutes, 60 μL of reagent (Celititer Glo assay kit) was added into each well, shaking was carried out for 2 minutes with a shaker (in the absence of light), and the plate was incubated at room temperature for 20 minutes (in the absence of light). Light signal values were read on a multi-functional microplate reader.
1) inhibition (%)=(DMSO solvent control well reading−test compound well reading)/(DMSO solvent control well reading−blank control well reading)×100%; […]

[2] = target: T1, Recombinant Human His6-USP1/His6-UAF1 Complex Protein (Homo sapiens (Human), UniProt O94782); assay: In-vitro enzymatic activity on USP1, first experimental method (Ub-Rho substrate, 15 min incubation); type: biochemical; details: incubation at room temperature 15 minutes, read-out: Inhibitory activities on USP-1, IC50
T1 sequence (O94782 whole entry): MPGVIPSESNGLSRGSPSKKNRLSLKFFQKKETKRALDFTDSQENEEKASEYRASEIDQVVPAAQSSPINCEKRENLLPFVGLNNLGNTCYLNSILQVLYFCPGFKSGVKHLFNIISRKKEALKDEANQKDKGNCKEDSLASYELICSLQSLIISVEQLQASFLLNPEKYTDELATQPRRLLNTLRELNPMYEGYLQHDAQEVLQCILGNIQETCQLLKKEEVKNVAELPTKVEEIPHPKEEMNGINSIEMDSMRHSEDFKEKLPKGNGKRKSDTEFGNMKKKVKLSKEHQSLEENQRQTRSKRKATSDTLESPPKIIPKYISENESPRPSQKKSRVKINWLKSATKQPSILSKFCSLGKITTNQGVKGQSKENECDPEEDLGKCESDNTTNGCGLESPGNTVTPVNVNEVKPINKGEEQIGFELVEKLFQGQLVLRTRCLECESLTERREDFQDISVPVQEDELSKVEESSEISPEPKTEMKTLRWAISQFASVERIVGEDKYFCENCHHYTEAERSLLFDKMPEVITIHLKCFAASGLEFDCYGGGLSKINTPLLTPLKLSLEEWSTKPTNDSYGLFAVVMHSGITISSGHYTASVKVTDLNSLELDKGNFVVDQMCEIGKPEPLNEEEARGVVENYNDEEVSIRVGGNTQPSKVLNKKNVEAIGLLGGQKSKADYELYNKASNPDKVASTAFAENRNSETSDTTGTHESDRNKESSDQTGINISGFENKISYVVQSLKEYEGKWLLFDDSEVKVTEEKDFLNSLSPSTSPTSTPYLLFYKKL
T1 sequence (Q8TAF3 whole entry partner): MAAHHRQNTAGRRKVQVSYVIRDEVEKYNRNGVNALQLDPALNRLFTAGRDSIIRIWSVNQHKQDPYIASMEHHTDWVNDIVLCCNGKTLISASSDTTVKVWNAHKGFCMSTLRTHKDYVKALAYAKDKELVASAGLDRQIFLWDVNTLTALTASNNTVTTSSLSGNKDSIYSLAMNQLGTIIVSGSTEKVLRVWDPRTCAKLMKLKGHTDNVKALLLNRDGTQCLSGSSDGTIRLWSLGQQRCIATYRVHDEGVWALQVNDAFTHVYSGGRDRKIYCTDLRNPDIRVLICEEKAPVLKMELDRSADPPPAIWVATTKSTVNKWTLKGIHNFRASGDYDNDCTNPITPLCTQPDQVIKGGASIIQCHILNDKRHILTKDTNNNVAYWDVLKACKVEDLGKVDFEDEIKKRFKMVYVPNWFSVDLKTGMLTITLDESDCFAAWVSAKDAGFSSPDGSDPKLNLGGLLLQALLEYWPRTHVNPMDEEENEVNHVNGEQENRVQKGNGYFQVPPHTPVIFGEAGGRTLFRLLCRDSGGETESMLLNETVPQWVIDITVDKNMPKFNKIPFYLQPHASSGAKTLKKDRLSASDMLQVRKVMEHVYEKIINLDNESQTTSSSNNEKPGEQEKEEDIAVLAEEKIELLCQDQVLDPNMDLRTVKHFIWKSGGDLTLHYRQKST
Procedure: Experimental Example 1 In-vitro Enzymatic Activities of Compounds of the Present Disclosure
First Experimental Method:
1) The compounds of the present disclosure were prepared to 10 mM with DMSO, and used as test stock solutions.
2) The stock solutions of the compounds of the present disclosure were diluted in a 4-fold gradient for 10 concentrations, with a maximum concentration of 10 mM.
3) The diluted compounds of the present disclosure were respectively transferred to 384-well plates (diluted by 1,000 folds) by Echo550, 2 multiple wells were set for each concentration, and a final concentration of DMSO was […].
(§6) 1) An enzyme solution was prepared in 1×test buffer.
(§7) 2) Ubiquitin Rhodamine 110 protein, CF (UB-Rho), was added into 1×determination buffer to prepare a substrate solution.
(§8) 3) 10 μL of enzyme solution and 1×reaction buffer were transferred to a 384-well plate, and
(§9) 4) incubated at room temperature for 15 minutes.
(§10) 5) 10 μL of substrate solution was added into each well to start the reaction, centrifuged for 30 seconds, and shaken for 30 seconds.
(§11) 1) Plate reading was carried out on SpectraMax Paradigm for 30 minutes, with an excitation wavelength of 480 nm and an emission wavelength of 540 nm.
2) Data on SpectraMax Paradigm were collected.
An inhibition (% inh) was calculated by the following formula:
(§12) [formula] • wherein, Max represented: a luminous signal intensity of a positive control well without adding the compound; • Min represented: a luminous signal intensity of a negative control well without adding the enzyme; and • Signal represented: a luminous signal intensity of the compound of the test sample.
IC50 was Calculated by the Following Formula:
(§13) [formula] • wherein, Y represented: % inhibition; and • X represented: the concentration of the compound.

[3] = system: Caov-3 cells; assay: Second in-vitro cytological inhibitory activity experiment, first method (CelltiterGlo assay), Caov-3; type: cell-based; details: Homo sapiens, Caov-3, 168 h, Experimental Example 3 first method, 2,000 cells/well, 7 days
Procedure: (§14) Experimental Example 3 Second Experiment of in-vitro Cytological Inhibitory Activities of Compounds of the Present Disclosure
(§15) Cell lines used in the following experiment were as follows: MDA-MB-436: human breast cancer cells; and Caov-3: Human ovarian cancer cells
(§16) First Experimental Method (CelltiterGlo Assay)
(§17) All cells were adherent cells, the MDA-MB-436 cell medium was DMEM+10% FBS+1% ITS-G+16 μg/ml glutathione, the Caov-3 cell medium was DMEM+10% FBS, and cells were tested in a logarithmic growth phase.
as §1, §2
as §3, with “concentration was 100 μM).” for “concentration was 10 μM).”
as §4
(§18) Solvent control: 0.1% DMSO.
(§19) Blank control: 0 hour after dosing, the 96-well plate was detected and read.
(§20) 2.5 The 96-well plate was placed in a 5% CO2 cell incubator at 37° C. to culture for 7 days.
as §5
(§21) 1) inhibition (%)=(DMSO solvent control well reading−test compound well reading)/(DMSO solvent control well reading−blank control well reading)×100%;
(§22) 2) GraphPad Prism was input for drawing to obtain a curve and IC50.

[4] = target: T1, Recombinant Human His6-USP1/His6-UAF1 Complex Protein; assay: In-vitro enzymatic activity on USP1, second experimental method (60 min incubation); type: biochemical; details: incubation at room temperature 60 minutes, read-out: Inhibitory activities on USP-1, IC50
Procedure: as §6, §7, §8, §9, §10, §11, §12, §13
(§23) Second Experimental Method:
In the enzyme reaction experiment, the incubation time at room temperature in the step 4) was changed to 60 minutes, other conditions were the same as those in the first experimental method, and the following test results were obtained: […]

[5] = system: MDA-MB-436 cells; assay: Second in-vitro cytological inhibitory activity experiment, first method (CelltiterGlo assay), MDA-MB-436; type: cell-based; details: Homo sapiens, MDA-MB-436, 168 h, Experimental Example 3 first method, 3,000 cells/well, 7 days, read-out: In-vitro cytological activities, IC50, MDA-MB-436
Procedure: as §14, §15, §16, §17, §1, §2
as §3, with “concentration was 100 μM).” for “concentration was 10 μM).”
as §4, §18, §19, §20, §5, §21, §22

[6] = system: Caov-3 cells; assay: Second in-vitro cytological inhibitory activity experiment, second method, Caov-3; type: cell-based; details: Homo sapiens, Experimental Example 3 second method, 5 mM stock, 9 concentrations
Procedure: as §23
(§24) The concentrations of the compound stock solutions prepared were 5 mM.
(§25) The stock solutions of the test compounds were serially diluted from 5 mM with DMSO in a 3-fold gradient for a total of 9 concentrations.

[7] = system: MDA-MB-436 cells; assay: Second in-vitro cytological inhibitory activity experiment, second method, MDA-MB-436; type: cell-based; details: Homo sapiens, Experimental Example 3 second method, 5 mM stock, 9 concentrations
Procedure: as §23, §24, §25

Structure (SMILES)	IC50 [1] [nM]	IC50 [2] [nM]	IC50 [4] [nM]	IC50 [5] [nM]	IC50 [6] [nM]	IC50 [7] [nM]	IC50 [3] [nM]
COc1ncnc(C2CC2)c1-c1nc2c3c(nn(Cc4ccc(-c5nc(C(F)(F)F)cn5C)cc4)c3n1)CCC2 [Compound 1, 4-(4-cyclopropyl-6-methoxypyrimidine-5-yl)-2-(4-(1-methyl-4-(trifluoromethyl)-1H-imidazol-2-yl)benzyl)-2,6,7,8-tetrahydropyrazolo[3,4,5-de]quinazoline]	68	28					
CC(C)c1c(F)cccc1-c1nc2c3c(nn(Cc4ccc(-c5nc(C(F)(F)F)cn5C)cc4)c3n1)CCC2 [Compound 2, 4-(3-fluoro-2-isopropylphenyl)-2-(4-(1-methyl-4-(trifluoromethyl)-1H-imidazol-2-yl)benzyl)-2,6,7,8-tetrahydropyrazolo[3,4,5-de]quinazoline]	88.1	5					
Cc1cc(C(F)(F)F)nn1-c1ccc(Cn2nc3c4c(nc(-c5cccc(F)c5C(C)C)nc42)CCC3)cc1 [Compound 3, 4-(3-fluoro-2-isopropylphenyl)-2-(4-(5-methyl-3-(trifluoromethyl)-1H-pyrazol-1-yl)benzyl)-2,6,7,8-tetrahydropyrazolo[3,4,5-de]quinazoline]		18					
[2H]C([2H])([2H])Oc1ncnc(C2CC2)c1-c1nc2c3c(nn(Cc4ccc(-c5nc(C(F)(F)F)cn5C)cc4)c3n1)CCCC2 [Compound 11-1, 4-(4-cyclopropyl-6-(methoxy-d3)pyrimidin-5-yl)-2-(4-(1-methyl-4-(trifluoromethyl)-1H-imidazol-2-yl)benzyl)-6,7,8,9-tetrahydro-2H-1,2,3,5-tetraazabenzo[cd]azulene]			15	122			1 to 600
COc1ncnc(C2CC2)c1-c1nc2c3c(nn(Cc4ccc(-c5nc(C(F)(F)F)cn5C(C)C)cc4)c3n1)CCC2 [Compound 16, 4-(4-cyclopropyl-6-methoxypyrimidine-5-yl)-2-(4-(1-isopropyl-4-(trifluoromethyl)-1H-imidazol-2-yl)benzyl)-2,6,7,8-tetrahydropyrazolo[3,4,5-de]quinazoline]			8	42.3			1 to 600
[2H]C([2H])([2H])Oc1ncnc(C2CC2)c1-c1nc2c3c(nn(Cc4ccc(-c5nc(C(F)(F)F)cn5C(C)C)cc4)c3n1)CCCC2 [Compound 17-1, 4-(4-cyclopropyl-6-(methoxy-d3)pyrimidin-5-yl)-2-(4-(1-isopropyl-4-(trifluoromethyl)-1H-imidazol-2-yl)benzyl)-6,7,8,9-tetrahydro-2H-1,2,3,5-tetraazabenzo[cd]azulene]			6.66	110			1 to 600

Now from value to molecule, other results behind:

IC50 [1] [nM]	IC50 [2] [nM]	IC50 [4] [nM]	IC50 [5] [nM]	IC50 [6] [nM]	IC50 [7] [nM]	Structure (SMILES)	IC50 [3] [nM]
		12.9	42.4			[2H]C([2H])([2H])Oc1ncnc(C2CC2)c1-c1nc2c3c(nn(Cc4ccc(-c5nc(C(F)(F)F)cn5C)cc4)c3n1)CCC2 [Compound 1-1, 4-(4-cyclopropyl-6-(methoxy-d3)pyrimidin-5-yl)-2-(4-(1-methyl-4-(trifluoromethyl)-1H-imidazol-2-yl)benzyl)-2,6,7,8-tetrahydropyrazolo[3,4,5-de]quinazoline]	1 to 600
		6.67	55.3			[2H]C([2H])([2H])Oc1ncnc(C2CC2)c1-c1nc2c3c(nn(Cc4ccc(-c5nc(C(F)(F)F)cn5C(C)C)cc4)c3n1)CCC2 [Compound 16-1, 4-(4-cyclopropyl-6-(methoxy-d3)pyrimidin-5-yl)-2-(4-(1-isopropyl-4-(trifluoromethyl)-1H-imidazol-2-yl)benzyl)-2,6,7,8-tetrahydropyrazolo[3,4,5-de]quinazoline]	1 to 600
		3.98	29.7			Cc1cnn(C(C)C)c1-c1nc2c3c(nn(Cc4ccc(-c5nc(C(F)(F)F)cn5C)cc4)c3n1)CCC2 [Compound 18, 4-(1-isopropyl-4-methyl-1H-pyrazol-5-yl)-2-(4-(1-methyl-4-(trifluoromethyl)-1H-imidazol-2-yl)benzyl)-2,6,7,8-tetrahydropyrazolo[3,4,5-de]quinazoline]	1 to 600
		4.36	49.8			Cc1cnn(C(C)C)c1-c1nc2c3c(nn(Cc4ccc(-c5nc(C(F)(F)F)cn5C(C)C)cc4)c3n1)CCC2 [Compound 19, 2-(4-(1-isopropyl-4-(trifluoromethyl)-1H-imidazol-2-yl)benzyl)-4-(1-isopropyl-4-methyl-1H-pyrazol-5-yl)-2,6,7,8-tetrahydropyrazolo[3,4,5-de]quinazoline]	1 to 600
				1 to 100	55.7	Cn1cc(C(F)(F)F)nc1-c1ccc(Cn2nc3c4c(nc(-c5c(OC(F)F)ncnc5C5CC5)nc42)CCC3)cc1 [Compound 20, 4-(4-cyclopropyl-6-(difluoromethoxy)pyrimidin-5-yl)-2-(4-(1-methyl-4-(trifluoromethyl)-1H-imidazol-2-yl)benzyl)-2,6,7,8-tetrahydropyrazolo[3,4,5-de]quinazoline]	
